Test [1] addresses T1, Acetylcholinesterase (Homo sapiens, UniProt P22303).
Description: Experimental pIC50 values for the inhibition of acetylcholinesterase
For test [2], the target named is T1, Acetylcholinesterase. This is another data set of the same source.
Description: Inhibitory activity against human erythrocyte acetylcholinesterase

This is an account of results in ChEMBL document CHEMBL1133184, “SAR of 9-amino-1,2,3,4-tetrahydroacridine-based acetylcholinesterase inhibitors: synthesis, enzyme inhibitory activity, QSAR, and structure-based CoMFA of tacrine analogues” (J Med Chem, 2000).

T1 sequence (P22303 whole entry): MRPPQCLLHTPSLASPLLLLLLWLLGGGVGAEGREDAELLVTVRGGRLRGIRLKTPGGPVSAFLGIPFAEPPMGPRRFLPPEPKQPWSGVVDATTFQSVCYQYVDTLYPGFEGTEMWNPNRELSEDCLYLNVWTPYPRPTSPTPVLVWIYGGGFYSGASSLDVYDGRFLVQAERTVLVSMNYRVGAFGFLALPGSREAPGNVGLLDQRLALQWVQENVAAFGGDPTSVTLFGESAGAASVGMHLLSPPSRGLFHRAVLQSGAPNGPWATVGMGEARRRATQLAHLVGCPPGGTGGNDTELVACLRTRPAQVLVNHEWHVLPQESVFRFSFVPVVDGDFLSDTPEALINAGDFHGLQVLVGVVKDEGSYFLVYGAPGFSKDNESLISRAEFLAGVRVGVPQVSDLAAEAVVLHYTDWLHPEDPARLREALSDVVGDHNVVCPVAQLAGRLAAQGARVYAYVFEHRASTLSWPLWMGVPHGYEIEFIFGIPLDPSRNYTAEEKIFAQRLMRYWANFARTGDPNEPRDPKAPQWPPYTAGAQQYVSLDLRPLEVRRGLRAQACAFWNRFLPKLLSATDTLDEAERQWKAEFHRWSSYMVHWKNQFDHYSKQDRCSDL

`Nc1c2c(nc3ccccc13)-c1ccc(F)cc1C2`: the midpoint of inhibition in test [1], the IC50, lay at 437 nM.
Turning to `CCCCCCCNc1c2c(nc3cc([N+](=O)[O-])ccc13)CCCC2`, the IC50 (commonly the midpoint of a concentration-inhibition curve) in test [1] was 295 nM; in test [2], 290 nM.
On to `COc1ccc2c(N)c3c(nc2c1)CCCC3`, for which the results for the IC50 in test [1] and in test [2] were 355 nM and 350 nM, respectively.
`O=[N+]([O-])c1ccc2nc3c(c(NCc4ccccc4)c2c1)CCCC3`: the IC50 in test [1] was 1580 nM; in test [2], 1600 nM.
As for `Clc1ccc2c(NCc3ccccc3)c3c(nc2c1)CCCC3`, the IC50 in test [1] and in test [2] was 170 nM in each case.
Turning to `Nc1c2c(nc3cc(Cl)ccc13)-c1ccccc1C2`, in test [1], inhibition was half-maximal at 6610 nM (IC50).
Take `CCCCCCCNc1c2c(nc3cc(Cl)ccc13)CCCC2`: the results for the IC50 in test [1] and in test [2] were 13.2 nM and 13 nM, respectively.
In the case of `Nc1c2c(nc3ccc([N+](=O)[O-])cc13)CCCC2`, the IC50 in test [1] is 3020 nM; in test [2], 3000 nM.
Take `Cc1ccc2c(N)c3c(nc2c1)CCCC3`: the IC50 in test [1] and in test [2] was 100 nM each time.
Turning to `CCCCCCCNc1c2c(nc3cc(C)ccc13)CCCC2`, the IC50 is 129 nM in test [1] and 130 nM in test [2].
On to `Nc1ccc2nc3c(c(N)c2c1)CCCC3`, for which the IC50 in test [1] and in test [2] was 3800 nM each time.
On to `O=[N+]([O-])c1ccc2c(NCc3ccccc3)c3c(nc2c1)CCCC3`, for which the IC50 was 4790 nM in test [1] and 4800 nM in test [2].
The like results for `Nc1c2c(nc3cc(F)ccc13)CCCC2` were, in that order, 87.1 nM and 87 nM.
In the case of `CCCCCCCNc1c2c(nc3cc(F)ccc13)CCCC2`, the IC50 was 45.7 nM in test [1] and 45 nM in test [2].
Take `CCCCCCCNc1c2c(nc3ccc(C)cc13)CCCC2`: the figures for the IC50 in test [1] and in test [2] were 389 nM and 390 nM, respectively.
For `Nc1c2c(nc3cc(Br)ccc13)CCCC2`, in test [2], the half-inhibitory concentration (IC50) worked out at 66 nM.
`COc1cc2nc3c(c(N)c2cc1OC)CCCC3`: the figures for the IC50 in test [1] and in test [2] were 5130 nM and 5200 nM, respectively.
The like results for `Nc1c2c(nc3cc(Cl)c(Cl)cc13)CCCC2` were, in that order, 479 nM and 470 nM.
In the case of `CCCCCCCNc1c2c(nc3cc(OC)ccc13)CCCC2`, the 50% inhibitory concentration (IC50) is 468 nM in test [1] and 460 nM in test [2].
In the case of `Nc1c2c(nc3ccc(Cl)cc13)CCCC2`, the IC50 in test [1] and in test [2] was 550 nM in each case.
For `Cc1ccc2nc3c(c(N)c2c1)CCCC3`, the values for the IC50 in test [1] and in test [2] were 8130 nM and 8100 nM, respectively.
Consider `Cc1ccc2c(NCc3ccccc3)c3c(nc2c1)CCCC3`, for which the results for the IC50 in test [1] and in test [2] were 741 nM and 750 nM, respectively.
In test [1], `COc1cccc2c1Cc1c-2nc2ccccc2c1N` showed an IC50 of 1660 nM.
Take `Cc1ccc2nc3c(c(NCc4ccccc4)c2c1)CCCC3`: the IC50 was 3720 nM in test [1] and 3700 nM in test [2].
